Measurements from patent publication US11524960B2, “Heterobicyclic inhibitors of MAT2A and methods of use for treating cancer” (AGIOS PHARMACEUTICALS, INC., priority 2018, dated 2022).

Assays:
[1] = target: T1, MAT2A homodimer (Homo sapiens, UniProt P31153); assay: Biochemical assay: inhibition of MAT2A (phosphate release, PiColorLock Gold); settings: MAT2A IC50 score; read-out: Enzyme Inhibition (Example 275)
T1 construct: inferred from Ni sepharose purification and imidazole elution; made in house; host or cells: Sf9 insect cells, recombinant baculovirus (Bac to Bac, pFASTBAC1)
Procedure, shortened: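 Phosphate formed alongside SAM was read with PiColorLock Gold and quantified against a potassium phosphate standard curve. Reactions ran 60 min at 25 °C after adding a substrate mix of 500 μM ATP and 400 μM L-methionine (mix concentrations). Compound had first been preincubated 60 min with recombinant Sf9-derived MAT2A homodimer ([…]) in pH 8.0 Tris buffer containing MgCl2, KCl, EDTA and BSA.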

[2] = system: SAM in HCT116 human colon carcinoma cell line engineered to delete the MTAP gene (MTAP −/−); assay: Cellular assay of target engagement (SAM) by LC-MS/MS; type: cell-based; settings: Homo sapiens, HCT-116, 72 h, IC50 score, read-out: Cell 72 h SAM Inhibition (MTAP −/−; Example 276)
Procedure, shortened: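 Intracellular SAM, the MAT2A product, was measured by quantitative LC-MS/MS against a d3-SAM standard in methanol/acetic acid extracts. Extracts came from HCT116 MTAP −/− cells exposed for 72 h at 37 °C to a ten-point, threefold dilution series of compound, added one day after seeding.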

[3] = system: HCT116 MTAP−/−; assay: Inhibition of cellular proliferation (Cell Titer Glo), HCT116 MTAP−/−; type: cell-based, human; settings: Homo sapiens, HCT-116, 96 h, 4 days, IC50 score, read-out: 4 Day Relative Growth Inhibition (MTAP −/−; Example 277)
Procedure, shortened: (§1)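 Proliferation was read as ATP luminescence (Cell Titer Glo) after a 4-day, 37 °C exposure of HCT116 cells differing only in MTAP deletion status. Dosing was 10 points, 3-fold steps, added 24 h post-plating; signal minus blank, relative to 0.2% DMSO control wells, was plotted against log molar concentration.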

[4] = system: HCT116 MTAP+/+; assay: Inhibition of cellular proliferation (Cell Titer Glo), HCT116 MTAP+/+; type: cell-based, human; settings: Homo sapiens, HCT-116, 96 h, 4 days, IC50 score, read-out: 4 Day Relative Growth Inhibition (MTAP +/+; Example 277)
Procedure, shortened: as §1

T1 sequence (P31153 whole entry): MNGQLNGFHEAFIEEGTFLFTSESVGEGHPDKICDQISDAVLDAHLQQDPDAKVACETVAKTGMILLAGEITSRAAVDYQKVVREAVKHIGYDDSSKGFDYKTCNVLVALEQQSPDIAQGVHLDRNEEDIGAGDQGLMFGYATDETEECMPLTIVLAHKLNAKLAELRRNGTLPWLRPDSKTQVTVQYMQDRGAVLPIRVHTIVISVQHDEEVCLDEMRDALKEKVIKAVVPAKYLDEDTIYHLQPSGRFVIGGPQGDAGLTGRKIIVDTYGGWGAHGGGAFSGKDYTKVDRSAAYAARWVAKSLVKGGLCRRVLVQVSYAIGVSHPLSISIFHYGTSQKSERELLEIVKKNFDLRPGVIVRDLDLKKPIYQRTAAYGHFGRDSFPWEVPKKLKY

Row | IC50 [1] | IC50 [2] | IC50 [3] | IC50 [4] | Compound
1 | < 100 nM | < 100 nM | < 100 nM | 100 to 10000 nM | Cn1cnc2ccc(-n3cc4cnc(NCC(F)(F)F)nc4c(-c4ccc(OC(F)F)cc4)c3=O)cc21 [Example 151, 8-(4-(difluoromethoxy)phenyl)-6-(1-methyl-1H-benzo[d]imidazol-6-yl)-2-((2,2,2-trifluoroethyl)amino)pyrido[4,3-d]pyrimidin-7(6H)-one]
2 | < 100 nM | < 100 nM | < 100 nM | > 10000 nM | Cn1cc2cc(-n3cc4cnc(NCC(F)(F)F)nc4c(-c4ccc(OC(F)(F)F)cc4)c3=O)ccc2n1 [Example 160, 6-(2-methyl-2H-indazol-5-yl)-2-((2,2,2-trifluoroethyl)amino)-8-(4-(trifluoromethoxy)phenyl)pyrido[4,3-d]pyrimidin-7(6H)-one]
3 | < 100 nM | < 100 nM | < 100 nM | 100 to 10000 nM | Cn1cc2cc(-n3cc4ccc(NCC(F)(F)F)nc4c(-c4ccc(OC(F)F)cc4)c3=O)ccc2n1 [Example 239, 8-(4-(difluoromethoxy)phenyl)-6-(2-methyl-2H-indazol-5-yl)-2-(2,2,2-trifluoroethylamino)-1,6-naphthyridin-7(6H)-one]
4 | < 100 nM | < 100 nM | < 100 nM | 100 to 10000 nM | COc1ccc(-n2cc3ccc(NCC(F)(F)F)nc3c(-c3ccc(OC(F)F)cc3)c2=O)cc1 [Example 241, 8-(4-(difluoromethoxy)phenyl)-6-(4-methoxyphenyl)-2-(2,2,2-trifluoroethylamino)-1,6-naphthyridin-7(6H)-one]
5 | < 100 nM | < 100 nM | 100 to 10000 nM | > 10000 nM | COc1ccc(-c2c(=O)n(-c3ccc4c(c3)OCCO4)cc3cnc(NCC(F)(F)F)nc23)cc1 [Example 177, 6-(2,3-dihydrobenzo[b][1,4]dioxin-6-yl)-8-(4-methoxyphenyl)-2-((2,2,2-trifluoroethyl)amino)pyrido[4,3-d]pyrimidin-7(6H)-one]

Continued, compound first:

Row | Compound | IC50 [1] | IC50 [2] | IC50 [3] | IC50 [4]
6 | CCOc1ccc2cn(-c3ccc4nn(C)cc4c3)c(=O)c(-c3ccc(CF)nc3)c2n1 [Example 137-A, 2-ethoxy-8-(6-(fluoromethyl)pyridin-3-yl)-6-(2-methyl-2H-indazol-5-yl)-1,6-naphthyridin-7(6H)-one] | < 100 nM | < 100 nM | < 100 nM | 100 to 10000 nM
7 | CCOc1ccc2cn(-c3ccc4nn(C)cc4c3)c(=O)c(-c3ccc(Br)cc3)c2n1 [Example 109-A] | < 100 nM | < 100 nM | < 100 nM | 100 to 10000 nM
8 | Cn1cnc2ccc(-n3cc4cnc(NCC(F)(F)F)nc4c(-c4ccc(Cl)cc4)c3=O)cc21 [Example 135, 8-(4-chlorophenyl)-6-(1-methyl-1H-benzo[d]imidazol-6-yl)-2-(2,2,2-trifluoroethylamino)pyrido[4,3-d]pyrimidin-7(6H)-one] | < 100 nM | < 100 nM | < 100 nM | 100 to 10000 nM
